Data from patent publication US11952383B1, “Aza-podophyllotoxin analogues as potential anti-cancer agents” (KING FAISAL UNIVERSITY, priority 2023, dated 2024).
Where two headings read alike, the source gives them in different places.

Key:
A-549 (lung cancer) = experiment: In vitro cytotoxic activity MTT assay, A-549; assay type: cell-based, human
Procedure: (§1) The cytotoxicity activity of the compounds of the current subject matter was assessed against three cancer cell lines such as A-549 (lung cancer), MCF-7 (breast cancer) and HL-60 (leukemia) cancer cells.
(§2) Compounds 1-15 were screened for their in vitro cytotoxic behavior utilizing a 3-(4,5-dimethyl-thiazol-2-yl)-2,5-diphenyltetrazolium bromide (MTT) assay against selected cancer human cell lines consisting of MCF-7 (human breast cancer), A-549 (lung cancer) and HL-60 (leukemia) (T. Mosmann, J. Immunol. Meth., 1983, 65, 55-63). The cells were cultured at 37° C. in RMPI1640 medium supplemented with 10% fetal bovine serum, 50 IU/mL penicillin, and 50 μg/mL streptomycin in a 5% CO2 incubator. All cells were sub-cultured 3 times/week by trypsinisation. Viable cells were seeded and allowed to adhere for 12 h before a test drug was added in 96-well plates at an initial density of 1.0×10^5 cells/mL. Tumour cell lines were separately exposed to various concentrations of the tested compounds followed by incubation at a temperature of 37° C. during 24 h inside a medium of fresh RMPI 1640. Cells were subsequently incubated at 37° C. using MTT at 0.5 mg/mL during 4 h. After removal of supernatant, formazan crystals were dissolved in isopropanol and the optical density was measured at 570 nm. Etopside and Cisplatin were used as a positive control.

[1] = tested on: MCF-7 (human breast cancer); experiment: In vitro cytotoxic activity MTT assay, MCF-7; assay type: cell-based
Procedure: as §1, §2

HL-60 (leukemia) = experiment: In vitro cytotoxic activity MTT assay, HL-60; assay type: cell-based, human
Procedure: as §1, §2

[2] = A-549 lung cancer cells, MTT, 24 h incubation, read-out: Anti-proliferative activity: IC50 (μM) A-549
[3] = MCF-7 breast cancer cells, MTT, 24 h incubation, read-out: Anti-proliferative activity: IC50 (μM) MCF-7
[4] = HL-60 leukemia cells, MTT, 24 h incubation, read-out: Anti-proliferative activity: IC50 (μM) HL-60
[5] = Homo sapiens, A549, A-549 lung cancer cells, MTT, 24 h incubation, read-out: Anti-proliferative activity: IC50 (μM) A-549
[6] = Homo sapiens, MCF7, MCF-7 breast cancer cells, MTT, 24 h incubation, read-out: Anti-proliferative activity: IC50 (μM) MCF-7
[7] = Homo sapiens, HL-60 leukemia cells, MTT, 24 h incubation, read-out: Anti-proliferative activity: IC50 (μM) HL-60

Row | SMILES | IC50 (A-549 (lung cancer); [2]) [µM] | IC50 [1, 3] [µM] | IC50 (HL-60 (leukemia); [4]) [µM] | IC50 (A-549 (lung cancer); [5]) [µM] | IC50 [1, 6] [µM] | IC50 (HL-60 (leukemia); [7]) [µM] | IC50 (A-549 (lung cancer); Homo sapiens, A549, A-549 cancer cells, read-out: IC50 (concentration of cytotoxic agent which inhibits proliferation of the treated cells by 50%) against A-549) [µM] | IC50 ([1]; Homo sapiens, MCF7, MCF-7 cancer cells, read-out: IC50 (concentration of cytotoxic agent which inhibits proliferation of the treated cells by 50%) against MCF-7) [µM] | IC50 (HL-60 (leukemia); Homo sapiens, HL-60 cancer cells, read-out: IC50 (concentration of cytotoxic agent which inhibits proliferation of the treated cells by 50%) against HL-60) [µM]
1 | N.N.[Cl][Pt][Cl] [Cisplatin, reference compound] | 9.25 | 15.9 | 1.16 | – | – | – | – | – | –
2 | COc1cc([C@@H]2c3cc4c(cc3[C@@H](O[C@@H]3O[C@@H]5CO[C@@H](C)O[C@H]5[C@H](O)[C@H]3O)[C@H]3COC(=O)[C@H]23)OCO4)cc(OC)c1O [Etoposide, reference compound] | 11.9 | 32.8 | 0.31 | – | – | – | – | – | –
3 | COc1ccc(C2C3=C(COC3=O)Nc3nc4ccccc4n32)cc1 (stereo not drawn) [Example 1, 11-(4-methoxyphenyl)-4,11-dihydro-1H,3H-benzo[4,5]imidazo[1,2-a]furo[3,4-d]pyrimidin-1-one] | – | – | – | 0.092 | 0.126 | 0.082 | – | – | –
4 | COc1ccc(C2C3=C(COC3=O)Nc3nc4ccccc4n32)cc1OC (stereo not drawn) [Example 2, 11-(3,4-dimethoxyphenyl)-4,11-dihydro-1H,3H-benzo[4,5]imidazo[1,2-a]furo[3,4-d]pyrimidin-1-one] | – | – | – | 0.12 | 0.104 | 0.096 | – | – | –
5 | COc1cc(C2C3=C(COC3=O)Nc3nc4ccccc4n32)cc(OC)c1OC (stereo not drawn) [Example 3, 11-(3,4,5-trimethoxyphenyl)-4,11-dihydro-1H,3H-benzo[4,5]imidazo[1,2-a]furo[3,4-d]pyrimidin-1-one] | – | – | – | 0.081 | 0.115 | 0.128 | – | – | –
6 | O=C1OCC2=C1C(c1ccc3c(c1)OCO3)n1c(nc3ccccc31)N2 (stereo not drawn) [Example 4, 11-(benzo[d][1,3]dioxol-5-yl)-4,11-dihydro-1H,3H-benzo[4,5]imidazo[1,2-a]furo[3,4-d]pyrimidin-1-one] | – | – | – | 0.104 | 0.097 | 0.084 | – | – | –
7 | O=C1OCC2=C1C(c1ccc(O)c(O)c1)n1c(nc3ccccc31)N2 (stereo not drawn) [Example 5, 11-(3,4-dihydroxyphenyl)-4,11-dihydro-1H,3H-benzo[4,5]imidazo[1,2-a]furo[3,4-d]pyrimidin-1-one] | – | – | – | 0.151 | 0.154 | 0.178 | – | – | –
8 | COc1cc(C2C3=C(COC3=O)Nc3nc4ccccc4n32)ccc1O (stereo not drawn) [Example 6, 11-(4-hydroxy-3-methoxyphenyl)-4,11-dihydro-1H,3H-benzo[4,5]imidazo[1,2-a]furo[3,4-d]pyrimidin-1-one] | – | – | – | 0.095 | 0.105 | 0.133 | – | – | –
9 | Cc1ccc(C2C3=C(COC3=O)Nc3nc4ccccc4n32)cc1 (stereo not drawn) [Example 7, 11-(p-tolyl)-4,11-dihydro-1H,3H-benzo[4,5]imidazo[1,2-a]furo[3,4-d]pyrimidin-1-one] | – | – | – | 0.067 | 0.069 | 0.072 | – | – | –
10 | CN(C)c1ccc(C2C3=C(COC3=O)Nc3nc4ccccc4n32)cc1 (stereo not drawn) [Example 8, 11-(4-(dimethylamino)phenyl)-4,11-dihydro-1H,3H-benzo[4,5]imidazo[1,2-a]furo[3,4-d]pyrimidin-1-one] | – | – | – | 0.092 | 0.087 | 0.129 | – | – | –
11 | Nc1ccc(C2C3=C(COC3=O)Nc3nc4ccccc4n32)cc1 (stereo not drawn) [Example 9, 11-(4-aminophenyl)-4,11-dihydro-1H,3H-benzo[4,5]imidazo[1,2-a]furo[3,4-d]pyrimidin-1-one] | – | – | – | 0.123 | 0.162 | 0.143 | – | – | –
12 | CC(=O)Nc1ccc(C2C3=C(COC3=O)Nc3nc4ccccc4n32)cc1 (stereo not drawn) [Example 10, N-(4-(1-oxo-4,11-dihydro-1H,3H-benzo[4,5]imidazo[1,2-a]furo[3,4-d]pyrimidin-11-yl)phenyl)acetamide] | – | – | – | 0.211 | 0.374 | 0.281 | – | – | –
13 | COc1cc(C2C3=C(CNC3=O)Nc3nc4ccccc4n32)cc(OC)c1OC (stereo not drawn) [Example 11, 11-(3,4,5-trimethoxyphenyl)-2,3,4,11-tetrahydro-1H-benzo[4,5]imidazo[1,2-a]pyrrolo[3,4-d]pyrimidin-1-one] | – | – | – | 0.086 | 0.125 | 0.104 | – | – | –
14 | COc1cc(C2C3=C(CSC3=O)Nc3nc4ccccc4n32)cc(OC)c1OC (stereo not drawn) [Example 12, 11-(3,4,5-trimethoxyphenyl)-4,11-dihydro-1H,3H-benzo[4,5]imidazo[1,2-a]thieno[3,4-d]pyrimidin-1-one] | – | – | – | 0.075 | 0.111 | 0.085 | – | – | –
15 | O=C1OCC2=C1C(c1ccc(F)cc1)n1c(nc3ccccc31)N2 (stereo not drawn) [Example 13, 11-(4-fluorophenyl)-4,11-dihydro-1H,3H-benzo[4,5]imidazo[1,2-a]furo[3,4-d]pyrimidin-1-one] | – | – | – | 0.071 | 0.045 | 0.061 | 0.071 | 0.045 | 0.061
16 | O=C1OCC2=C1C(c1ccc(Cl)cc1)n1c(nc3ccccc31)N2 (stereo not drawn) [Example 14, 11-(4-chlorophenyl)-4,11-dihydro-1H,3H-benzo[4,5]imidazo[1,2-a]furo[3,4-d]pyrimidin-1-one] | – | – | – | 0.058 | 0.074 | 0.069 | – | – | –
17 | O=C1OCC2=C1C(c1ccc(Br)cc1)n1c(nc3ccccc31)N2 (stereo not drawn) [Example 15, 11-(4-bromophenyl)-4,11-dihydro-1H,3H-benzo[4,5]imidazo[1,2-a]furo[3,4-d]pyrimidin-1-one] | – | – | – | 0.105 | 0.081 | 0.092 | – | – | –
